Laboratory results reported in US20180346731A1, “Formation of Stable Pyranoanthocyanins, and Uses Thereof as Sources of Natural Color” (Ohio State Innovation Foundation, priority 2017, published 2018).

Tests used:
[1] = Colorimetry (CIEL*c*h*, ΔE) of pigment solutions with ascorbic acid; format: physicochemical
Protocol: The semi-purified chokeberry extract, the isolated cyanidin-3-galactoside, and the purified 5-carboxypyranocyanidin-3-galactoside were diluted in pH 3.0 citrate buffer (0.1 M adjusted with HCl) until an absorbance of 1.0 at their respective λmax was reached. Levels of AA of 250, 500, and 1000 mg/L were added using a concentrated ascorbic acid stock solution, and a control consisting of each pigment with the absence of AA was maintained. The control consisted of the pigment in the buffer in the absence of AA. An additional test was performed with the same model juice using hydrogen peroxide, a known degradation product of AA. To determine if AA bleaching was due to formation of H2O2, direct addition of it was investigated. In place of added AA, a 62.2 μL of a 0.3% peroxide solution was added to match the molar equivalency of the 500 mg/L AA level, which was 2.84 mM.
All samples were brought to the same final volume with additional citrate buffer. […] Samples were stored in the dark at 25° C. in an incubator. UV-Vis spectrophotometry, colorimetry, and HPLC analyses were conducted over a 5 day period following the addition of ascorbic acid or hydrogen peroxide. UV-Vis spectral data was collected every hour for the first 8 hours, and then at 12 hr, and daily from that point on for 5 days. […] HPLC analyses were conducted on days 0, 1, 3, and 5. All treatments were run in triplicate.
Using UV-Vis spectral data (5 nm steps, 380-700 nm) in combination with software written for color conversion, absorbance data was translated to CIE-L*c*h*. The calculations for CIE-L*c*h* implemented by the software used CIE relative spectral power distribution for a D65 standard illuminants and 10° observer angle function. Color data is reported as L* (lightness), c* (chroma), and h* (hue angle).
Total color changes (ΔE) were calculated as the color change from day 0 to 5 for each respective treatment, and presented in Table 4.
Numbers are means of 3 replications, followed by (standard deviations). ΔE: total color change from day 0 (control) to day 5.

[2] = Colorimetry (CIEL*c*h*, ΔE2000) of anthocyanin isolates treated with pyruvic acid, 31 days storage; format: physicochemical; settings: day 0 vs day 31, Delta E2000
Protocol: Prior to dilution, the concentrations of the isolated pigment extracts were determined by the pH differential method for subsequent dilution to known concentrations. The isolates were then diluted to 500 μM (expressed as Cyanidin-3-glucoside equivalents) in pH 2.5 deionized water (previously adjusted with HCl) which contained 0.1% potassium sorbate (w/v) and 0.1% sodium benzoate (w/v) to function as preservative agents during storage. A pH of 2.5 was selected as a compromise of several variables: the flavylium form was predominant, the effect of pKh was minimized, and it is a relevant pH for wines. It has been reported that the pKh's of cy3 gal, cy3xylgal, and cy3xylglugal ranges from 3.01 to 3.26. Working at pH 2.5 largely avoided the effect of different equilibrium forms while also maintaining a pH that is similar to that of wines where these compounds are commonly formed. Control samples of each isolate were prepared and contained no pyruvic acid. For treatments containing pyruvic acid, a previously diluted pyruvic acid standard (pyruvic acid in the same pH 2.5 water containing preservatives) was added to obtain concentrations 100× the molar ratio of anthocyanins (50 mM of pyruvic acid). All treatments were brought to the same final volume by the addition of more pH 2.5 water. Samples were filtered through a 0.2 μm membrane into 1.5 mL glass HPLC vials. Vials were capped and stored in an incubator in the dark at 25° C. for a 31 day duration (Fisher Scientific, Waltham, Mass., U.S.). All treatments were prepared in triplicate.
Colorimetric data of samples was calculated from spectra of samples collected from the plate reader with ColorBySpectra. Absorbance data was obtained and conversion to color values was achieved using the following settings: regular transmission, D65 illuminant, and 10° observer angle. Values reported are in the CIEL*c*h* scale. After storage for 31 days, the mathematical differences in color (ΔE) were calculated according to the CIE-L*a*b* Delta E2000 equation. Colorimetric data of the samples containing pyruvic acid was used to correlate with pyranoanthocyanins formation. Spectral absorbance data of the peaks of the anthocyanins and their respective pyranoanthocyanins were also collected from the PDA during uHPLC analyses and converted to colorimetric data using ColorBySpectra under the settings described above. The spectra was obtained from the time of elution of the target compound and then standardized to an absorbance of 1.0 at λvis-max.

[3] = 1000 mg/L AA, listed as cyanidin-3-galactoside

OC[C@H]1O[C@@H](Oc2cc3c(O)cc(O)cc3[o+]c2-c2ccc(O)c(O)c2)[C@H](O)[C@@H](O)[C@H]1O [Cyanidin-3-galactoside, cyanidin-3-galactoside]
Chroma Day 0 ([1]; 250 mg/L AA): 50.8 (0.2)
Chroma Day 5 ([1]; 250 mg/L AA): 13.9 (0.7)
Hue Angle Day 0 ([1]; 250 mg/L AA): 18.7 (0.1) °
Hue Angle Day 5 ([1]; 250 mg/L AA): 21.9 (1.2) °
Lightness Day 0 ([1]; 250 mg/L AA): 77.5 ( ).2)
Lightness Day 5 ([1]; 250 mg/L AA): 93.2 (0.3)
ΔE Over 5 days ([1]; 250 mg/L AA): 19.3 (0.3)
Chroma Day 0 ([1]; 500 mg/L AA): 51.8 (0.0)
Chroma Day 5 ([1]; 500 mg/L AA): 10.5 (0.4)
Hue Angle Day 0 ([1]; 500 mg/L AA): 18.8 (0.0) °
Hue Angle Day 5 ([1]; 500 mg/L AA): 51.1 (2.7) °
Lightness Day 0 ([1]; 500 mg/L AA): 77.0 (0.1)
Lightness Day 5 ([1]; 500 mg/L AA): 94.4 (0.6)
ΔE Over 5 days ([1]; 500 mg/L AA): 23.6 (0.2)
Chroma Day 0 ([1]; 1000 mg/L AA): 50.9 (0.1)
Chroma Day 5 ([1]; 1000 mg/L AA): 13.7 (1.8)
Hue Angle Day 0 ([1]; 1000 mg/L AA): 18.7 (0.1) °
Hue Angle Day 5 ([1]; 1000 mg/L AA): 77.5 (4.5) °
Lightness Day 0 ([1]; 1000 mg/L AA): 77.2 (0.3)
Lightness Day 5 ([1]; 1000 mg/L AA): 94.5 (0.7)
ΔE Over 5 days ([1]; 1000 mg/L AA): 27.6 (0.7)
L* after 48 hours ([1]; 1000 mg/L AA, 48 hours): 96.4
Hue Angle Day 0 [1, 3]: 18.7 °
Hue Angle Day 5 [1, 3]: 77.5 °
Lightness Day 0 [1, 3]: 77.2
ΔE Over 5 days [1, 3]: 27.6
Chroma Day 0 ([1]; Control, no AA): 51.2 (0.2)
Chroma Day 5 ([1]; Control, no AA): 46.5 (2.1)
Hue Angle Day 0 ([1]; Control, no AA): 18.6 (0.1) °
Hue Angle Day 5 ([1]; Control, no AA): 15.9 (1.0) °
Lightness Day 5 ([1]; Control, no AA): 79.4
ΔE Over 5 days ([1]; Control, no AA): 2.6 (1.1)
Lightness Day 0 ([1]; Control, no AA, mean (SD), n=3): 77.3 (0.1)
time until significant change in chroma as compared to the control ([1]; all levels of AA): 2 h
initial hue angle ([1]; day 0): 16.6 °
total color change (ΔE) [2]: 8.2
